# In PubChem BioAssay (NCI):
# Several values for one entry are separate records, joined by “and”; a condition that tells them apart may be missing. Identical values can stand only once.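 Dose response: 5 concentrations. Exposure: 48 h. Format: 96-well plates. Endpoint: linear interpolation; highest concentration if not reached. The concentration for 50% growth inhibition is given as GI50. TGI: concentration producing complete growth inhibition.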
# What was measured:
# Experiment in all cases: inhibition of tumour cell growth, NCI panel, 48 h
# [1] = tested on: K-562 leukemia
# [2] = tested on: M14 melanoma
# [3] = tested on: MALME-3M melanoma
# [4] = tested on: NCI-H226 lung
# [5] = tested on: NCI-H23 lung
# [6] = tested on: NCI-H522 lung
# [7] = tested on: SF-268 CNS
# [8] = tested on: SK-MEL-5 melanoma
# [9] = tested on: SK-OV-3 ovarian
# [10] = tested on: SR leukemia
SMILES,GI50 [1],TGI [1] [µM],GI50 [2],TGI [2] [µM],GI50 [3],TGI [3],GI50 [4],TGI [4] [µM],GI50 [5],TGI [5] [µM],GI50 [6],TGI [6],GI50 [7],TGI [7] [µM],GI50 [8],TGI [8],GI50 [9],TGI [9],GI50 [10],TGI [10] [µM]
O=C1OCC2=C1C(c1ccccc1)c1cc3c(cc1N2CCO)CCC3 (centres undefined),90.8 nM,> 25,72.2 nM,0.351,60.9 nM,> 25 µM,1.02 µM,> 25,0.106 µM,> 9.91,0.0284 µM,0.119 µM,0.0833 µM,1.51,76.2 nM,5.41 µM,0.097 µM,8.73 µM,76.2 nM,> 25
CCc1ccc(/C(C#N)=C/C=C/c2ccccc2)cc1,882 nM,> 100,2240 nM,> 100,6050 nM,> 100 µM,17.2 µM,> 100,6.24 µM,> 100,2.04 µM,14.7 µM,19.3 µM,> 100,1090 nM,26.2 µM,3.08 µM,> 29.3 µM,644 nM,> 61.4
Cc1ccccc1NC(=O)N/C(N)=N/c1nc2ccccc2s1,32.7 nM,> 100,34.8 nM,1.41,69.3 nM,> 100 µM,0.589 µM,> 100,0.209 µM,> 100,0.0427 µM,> 100 µM,1.5 µM,> 100,65 nM,2.07 µM,0.416 µM,> 100 µM,39.2 nM,> 100
COc1cc(C2=Nc3c/c(=C\c4c(O)[nH]c5ccc(Cl)cc45)ccc3=N2)cc(OC)c1OC,4210 nM,25.5,1710 nM,3.83,1790 nM,3.71 µM,10.3 µM,29.7,1.96 µM,7.61,3.17 µM,10.7 µM,1.93 µM,3.78,1580 nM,3.55 µM,16.2 µM,32.5 µM,1940 nM,5.05
CCNC(=O)Nc1ccc(-c2nc3c(c(N4CCOC[C@@H]4C)n2)CCN(C2COC2)C3)cc1,1270 nM and 1100 nM,> 100,418 nM and 323 nM,> 100,74.3 nM and 82.5 nM,1.6 µM and 1.2 µM,0.247 µM and 0.119 µM,,0.69 µM and 0.512 µM,> 100,0.181 µM and 0.159 µM,> 24.2 µM and 6.18 µM,0.591 µM and 0.29 µM,> 100,317 nM and 331 nM,8.52 µM and 2.56 µM,0.148 µM and 0.131 µM,1.16 µM and 0.956 µM,439 nM and 416 nM,> 100
Nc1cccc(-c2nc3sccn3c2-c2ccnc(NCCCNS(=O)(=O)c3ccc(C(F)(F)F)cc3)n2)c1,2770 nM,> 100,3890 nM,15.3,3940 nM,18 µM,3.14 µM,16.5,5.07 µM,40.9,3.35 µM,18.2 µM,3.97 µM,49.6,2200 nM,5.2 µM,5.37 µM,> 100 µM,3840 nM,43.9
CN(C)c1cc2c(Nc3ccc4nc(Cc5ccccc5)[nH]c4c3)ncnc2cn1,> 19800 nM,> 25,> 25000 nM,> 25,> 16300 nM,> 25 µM,> 18 µM,> 25,> 23.9 µM,> 25,10.9 µM,> 25 µM,> 23.4 µM,> 25,8990 nM,> 16 µM,1.85 µM,> 25 µM,8790 nM,> 25
C[C@@]12CCC[C@@](C)(C(=O)O)C1CC[C@]13C=C(CO)[C@](O)(CCC12)C3 (some centres undefined),> 100000 nM,> 100,> 100000 nM,> 100,> 100000 nM,> 100 µM,> 100 µM,> 100,> 100 µM,> 100,> 100 µM,> 100 µM,> 100 µM,> 100,> 100000 nM,> 100 µM,> 100 µM,> 100 µM,> 100000 nM,> 100
COc1c(Nc2ncc(Cl)c(N[C@@H]3[C@H]4C=CC(C4)[C@@H]3C(N)=O)n2)ccc2c1CC[C@@H](N1CCOCC1)CC2,5520 nM,59.7,2140 nM,12.7,1700 nM,14.6 µM,3.81 µM,30.2,6.02 µM,24.7,5.47 µM,15 µM,4.71 µM,20.8,5810 nM,19.2 µM,3.43 µM,15.2 µM,430 nM,5.64
C[CH2][Sn]1([CH2]C)[O]C2C(O)OC(CO)C(O)C2[O]1 (centres undefined),16700 nM,41.4,37300 nM,> 100,14000 nM,30.2 µM,13.2 µM,26.1,24.2 µM,93,3.95 µM,22.2 µM,39.4 µM,> 100,34100 nM,> 100 µM,> 100 µM,> 100 µM,13300 nM,39.6
O=[N+]([O-])c1ccc(Oc2cccnc2)c([N+](=O)[O-])c1,3220 nM,> 100,2740 nM,8.61,2830 nM,17.6 µM,2.97 µM,25.5,4.28 µM,18.7,3.02 µM,9.55 µM,4.2 µM,36.4,3040 nM,11.6 µM,3.28 µM,9.73 µM,4190 nM,> 100
NC(=O)c1cccc(N)c1,> 100000 nM,> 100,> 100000 nM,> 100,> 100000 nM,> 100 µM,> 100 µM,> 100,> 100 µM,> 100,> 100 µM,> 100 µM,> 100 µM,> 100,> 100000 nM,> 100 µM,> 100 µM,> 100 µM,> 100000 nM,> 100
